Measurements as given in patent US20030119812A1, “Method for decreasing capillary permeability in the retina” (priority 2001, published 2003).

Test system: BRB breakdown in mice exposed to vascular endothelial growth factor (VEGF)
Assay: BRB breakdown quantitated with [3H]-mannitol tracer in mice given intravitreal VEGF
Assay type: in vivo, C57B/J6 mice
Excerpt: Intraperitoneally administered radiolabeled tracer can be used to quantitate BRB breakdown in mice exposed to vascular endothelial growth factor (VEGF). This technique is particularly advantageous with neonatal mice because of the technical difficulty involved with intravascular injections. Also, the comparison of retinas from injected and control eyes to tissues without a blood-tissue barrier corrects for variations in the amount of isotope injected or absorbed into the circulation.
Ten six- to seven-week-old C57B/J6 mice (Jackson Labs, Bar Harbor, Me.) are weighed to determine the proper dosage of anesthesia and tracer required. Mice are anesthetized with a solution containing 25 mg/kg ketamine (Ketaset; Fort Dodge Animal Health, Fort Dodge, Iowa) and 4 mg/kg rompun (Tranquived; Vedco, St. Joseph, Mo.) diluted 1:10 in saline prior to injection. Five mice are subjected to gavage with 50 mg/kg N-benzoyl staurosporine for three days prior to intravitreal administration of VEGF; the other five mice are subjected to gavage with vehicle.
Tropicamide (1%) is used to dilate the pupils of anesthetized mice. Under a dissecting microscope, a Harvard injector (PLI 100) is used with a glass pipet pulled to a diameter of 13-20 μm to inject 1 μl of saline containing VEGF (R&D Systems, Minneapolis, Minn.). The eyes are entered posterior to the limbus, directing the pipet toward the optic nerve. The solution is then deposited just in front of the retina without inflicting any damage to the lens. […]
One ml NCSII (Amersham, Chicago, Ill.) solubilizing solution is added to each vial and the vials are incubated overnight in a 50° C. water bath. […] The specimens are counted on a Wallac 1409 Liquid Scintillation Counter (Gaithersburg, :Md.).
The counts per mg tissue are determined for treated (with N-benzoyl staurosporine) and untreated retina, lung, and kidney. Ratios of these values for treated or untreated retina/lung or kidney and for lung/kidney are calculated. […]

SMILES: CO[C@@H]1[C@H](N(C)C(=O)c2ccccc2)C[C@H]2O[C@]1(C)n1c3ccccc3c3c4c(c5c6ccccc6n2c5c31)C(=O)NC4 [N-benzoyl staurosporine]
- radioactivity in the retinas (leakage of radioactive tracer out of the retinal blood vessels) (50 mg/kg N-benzoyl staurosporine by gavage versus vehicle gavage, before intravitreal VEGF): significantly less radioactivity
- retina/kidney ratio (50 mg/kg by gavage for three days before intravitreal VEGF 10^-6 M, [3H]-mannitol at 6 hours, VEGF/vehicle 0.6806±0.1060, Student-t value 0.0201): 0.3881±0.0436
- retina/lung ratio (cpm per mg of retina/cpm per mg of lung) (50 mg/kg by gavage for three days before intravitreal VEGF 10^-6 M, [3H]-mannitol at 6 hours, VEGF/vehicle 0.8785±0.0946, Student-t value 0.0467): 0.6326±0.0656
